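A five-concentration, 48-hour dose response in 96-well plates underlies each endpoint, interpolated linearly between surrounding concentrations. GI50 is the concentration that inhibits growth by half.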 Activity calls are given as the source filed them. Rule as the data show it: active = GI50 up to about 1.1 µM and inactive = higher.
How the values were obtained:
Test in all cases: DTP human tumour cell line panel, 48 h
[1] = test system: HL-60
[2] = test system: NCI/ADR-RES
[3] = test system: U-251
[4] = test system: HCT-116
[5] = test system: OVCAR-8
[6] = test system: TK-10
[7] = test system: MDA-MB-435
[8] = test system: EKVX
[9] = test system: NCI-H460
[10] = test system: MDA-MB-231
[11] = test system: HOP-92
[12] = test system: IGROV-1
[13] = test system: SK-MEL-2
[14] = test system: HT-29
[15] = test system: HCC 2998
[16] = test system: OVCAR-3
[17] = test system: SNB-19
[18] = test system: BT-549
[19] = test system: HOP-62
[20] = test system: KM12

Row | Structure (SMILES) | GI50 [1] | GI50 [2] | GI50 [3] | GI50 [4] | GI50 [5] | GI50 [6] | GI50 [7] | GI50 [8] | GI50 [9] | GI50 [10] | GI50 [11] | GI50 [12] | GI50 [13] | GI50 [14] | GI50 [15] | GI50 [16] | GI50 [17] | GI50 [18] | GI50 [19] | GI50 [20]
1 | Nc1cc(S(N)(=O)=O)ccc1SSc1ccc(S(N)(=O)=O)cc1N | > 100 µM (inactive) | > 100 µM (inactive) | > 100 µM (inactive) | > 100 µM (inactive) | > 100 µM (inactive) | > 100 µM (inactive) | > 100 µM (inactive) | > 100 µM (inactive) | > 100 µM (inactive) | > 100 µM (inactive) | > 100 µM (inactive) | > 100 µM (inactive) | > 100 µM (inactive) | > 100 µM (inactive) | > 100 µM (inactive) | > 100 µM (inactive) | > 100 µM (inactive) | > 100 µM (inactive) | > 100 µM (inactive) | > 100 µM (inactive)
2 | Nc1ccc(-c2nc3ccccc3s2)cc1Br | > 100 µM (inactive) | > 100 µM (inactive) | 57.5 µM (inactive) |  | > 75.2 µM (inactive) | 0.0141 µM (active) | > 100 µM (inactive) | 26.4 µM (inactive) | 4.31 µM (inactive) | 52.6 µM (inactive) | 26.5 µM (inactive) | < 0.01 µM (active) | > 100 µM (inactive) | > 100 µM (inactive) | 72.6 µM (inactive) | < 0.01 µM (active) | 60.4 µM (inactive) | > 56.8 µM (inactive) | 29.9 µM (inactive) | > 92.9 µM (inactive)
3 | COc1cccc(C2CC(C)(O)Oc3cc4c(cc32)OCO4)c1O (configuration not stated) | 31 µM (inactive) | 19.7 µM (inactive) | 24.2 µM (inactive) | 10.7 µM (inactive) | 25.7 µM (inactive) | 39.7 µM (inactive) | 2.78 µM (inactive) | 34.6 µM (inactive) | 32.6 µM (inactive) | 18 µM (inactive) | 22.4 µM (inactive) | 27.9 µM (inactive) | 22.8 µM (inactive) | 21.4 µM (inactive) | 25.6 µM (inactive) | 15.6 µM (inactive) | 31 µM (inactive) | 15.3 µM (inactive) | 27.4 µM (inactive) | 12.5 µM (inactive)
4 | COc1nc(SC)nc2c1C(O)n1c(nc3ccccc31)S2 (configuration not stated) | 12.3 µM (inactive) | 10.5 µM (inactive) | 10.6 µM (inactive) | 11.5 µM (inactive) | 14.1 µM (inactive) | 23.7 µM (inactive) | 20.1 µM (inactive) | 36.1 µM (inactive) | 15 µM (inactive) | 14.4 µM (inactive) | 23.3 µM (inactive) | 40.9 µM (inactive) | 28.9 µM (inactive) | 35.9 µM (inactive) | 6.79 µM (inactive) | 32.7 µM (inactive) | 25.2 µM (inactive) | 28.1 µM (inactive) | 12.1 µM (inactive) | 25.4 µM (inactive)
5 | C=C1C(C2(C)C(OC(C)=O)CC(=O)OC(C)(COC(C)=O)C2CC(=O)OC)C(OC=O)C(OC(=O)C(O)C(C)CC)C2(C)C(c3ccoc3)CC(=O)C12O (configuration not stated) | 0.157 µM (active) | 45.9 µM (inactive) | 3.86 µM (inactive) | 1.58 µM (inactive) | 10.2 µM (inactive) | 17.4 µM (inactive) | 6.61 µM (inactive) | 6.32 µM (inactive) | 2.65 µM (inactive) | 4.69 µM (inactive) | 7.35 µM (inactive) | 2.52 µM (inactive) | > 31.4 µM (inactive) | 3.42 µM (inactive) | 0.16 µM (active) | > 42.7 µM (inactive) |  | 4.33 µM (inactive) | 7.43 µM (inactive) | 3.23 µM (inactive)
6 | NC(=O)CSc1c2cc(O)ccc2nc2ccc(O)cc12 | > 10 µM (inactive) | > 10 µM (inactive) | > 10 µM (inactive) | > 10 µM (inactive) | > 10 µM (inactive) | > 10 µM (inactive) | > 10 µM (inactive) | > 10 µM (inactive) | > 10 µM (inactive) | > 10 µM (inactive) | > 10 µM (inactive) | > 10 µM (inactive) | > 10 µM (inactive) | > 10 µM (inactive) | > 10 µM (inactive) | > 10 µM (inactive) | > 10 µM (inactive) | > 10 µM (inactive) | > 10 µM (inactive) | > 10 µM (inactive)
7 | COc1ccc(C(=O)N(Cc2cccnc2)C(=S)N(Cc2cccnc2)C(=O)c2ccc(OC)cc2)cc1 | > 100 µM (inactive) | 75.2 µM (inactive) | 55.2 µM (inactive) | > 100 µM (inactive) | 66.8 µM (inactive) | > 100 µM (inactive) | 62.8 µM (inactive) | > 100 µM (inactive) | > 100 µM (inactive) | > 100 µM (inactive) | 36.6 µM (inactive) |  | > 100 µM (inactive) | > 100 µM (inactive) | > 100 µM (inactive) | > 100 µM (inactive) | 40.3 µM (inactive) | > 100 µM (inactive) | 35 µM (inactive) | 70.8 µM (inactive)
8 | O[C@H]1[C@H](O)[C@H](O)CN2CCC[C@@H](O)[C@H]12 | > 100 µM (inactive) | > 100 µM (inactive) | > 100 µM (inactive) | > 100 µM (inactive) | > 100 µM (inactive) | > 100 µM (inactive) | > 100 µM (inactive) | > 100 µM (inactive) |  | > 100 µM (inactive) | > 100 µM (inactive) | > 100 µM (inactive) | > 100 µM (inactive) | > 100 µM (inactive) | > 100 µM (inactive) | > 100 µM (inactive) | > 100 µM (inactive) | > 100 µM (inactive) | > 100 µM (inactive) | > 100 µM (inactive)
9 | Cc1c(C(=O)Nc2ccccc2)nnn1-c1ccnc2cc(C(F)(F)F)ccc12 | 35 µM (inactive) | 42.6 µM (inactive) | 68.4 µM (inactive) | 45.5 µM (inactive) | 76.9 µM (inactive) | 85.5 µM (inactive) | 40.8 µM (inactive) | 34.7 µM (inactive) | 41.6 µM (inactive) | 19.1 µM (inactive) | 24.9 µM (inactive) | > 100 µM (inactive) | > 100 µM (inactive) | 80.2 µM (inactive) | 38.1 µM (inactive) | 67.1 µM (inactive) | 33.5 µM (inactive) | > 100 µM (inactive) |  | 50.8 µM (inactive)
10 | C=C(C)[C@H]1C2=CC(C)=C(O2)[C@@H](O)[C@H](C(=C)C)CCC2=C[C@H]1OC2=O [KALLOLIDE A] | > 100 µM (inactive) | > 100 µM (inactive) | > 100 µM (inactive) |  | > 100 µM (inactive) | > 100 µM (inactive) | > 100 µM (inactive) | > 100 µM (inactive) | > 100 µM (inactive) | > 100 µM (inactive) | > 100 µM (inactive) | > 100 µM (inactive) | > 100 µM (inactive) |  | > 100 µM (inactive) | > 100 µM (inactive) | > 100 µM (inactive) | > 100 µM (inactive) |  | > 100 µM (inactive)

Source: ChEMBL document CHEMBL1201862, “PubChem BioAssay data set” (2004)
